Source: patent US5494933A, “Treatment” (Beecham-Wuelfing GmbH & Co. KG, priority 1986, dated 1996)

Key:
[1] = tested on: heart rate, systolic left ventricular pressure, left ventricular dp/dt max and mean arterial blood pressure; assay: Haemodynamic profile in anaesthetized rats; assay type: in vivo, rat; settings: for % effect of Dhr 20 on dp/dtmax: left ventricular
Source text: 2. Haemodynamic profile in anaesthetized rats.
The effect of compounds of the invention on heart rate, systolic left ventricular pressure, left ventricular dp/dt max and mean arterial blood pressure was investigated so as to obtain information on the anti-anginal potential of these compounds, by reducing the oxygen demand of the ischaemic heart.
**LVP = systolic left ventricular pressure
***BP = mean arterial blood pressure
^a = i.d. administration

coronary spasm = assay: Vasopressin test in anaesthetized rats (coronary vasodilating activity, coronary spasm); assay type: in vivo, rat; settings: 0.6 g/kg i.d., vasopressin (Lysopressin) 1 I.U./kg i.v.
Description: 1. Coronary Vasodilating activity
a) Vasopressin test in anaesthetized rats
Vasopressin (Lysopressin: 1 I.U./kg) was administered intravenously in order to provoke coronary spasm (ST-segment elevation in the ECG).
The ability of test compounds to reduce coronary spasm is taken as a measure of their anti-anginal potential in spasm-induced angina pectoris. (Ref. Drug.Res. 33(11), 8,1117-1121 (1983)).

coronary artery = biological target: T1, coronary artery (Sus scrofa, UniProt A0A8W4FNC0); assay: Pig isolated coronary artery, Ca++-antagonistic activity
T1 construct: Coronary artery spirals were prepared; from tissue; host or cells: pig coronary artery spirals
T1 sequence (A0A8W4FNC0 1-2067): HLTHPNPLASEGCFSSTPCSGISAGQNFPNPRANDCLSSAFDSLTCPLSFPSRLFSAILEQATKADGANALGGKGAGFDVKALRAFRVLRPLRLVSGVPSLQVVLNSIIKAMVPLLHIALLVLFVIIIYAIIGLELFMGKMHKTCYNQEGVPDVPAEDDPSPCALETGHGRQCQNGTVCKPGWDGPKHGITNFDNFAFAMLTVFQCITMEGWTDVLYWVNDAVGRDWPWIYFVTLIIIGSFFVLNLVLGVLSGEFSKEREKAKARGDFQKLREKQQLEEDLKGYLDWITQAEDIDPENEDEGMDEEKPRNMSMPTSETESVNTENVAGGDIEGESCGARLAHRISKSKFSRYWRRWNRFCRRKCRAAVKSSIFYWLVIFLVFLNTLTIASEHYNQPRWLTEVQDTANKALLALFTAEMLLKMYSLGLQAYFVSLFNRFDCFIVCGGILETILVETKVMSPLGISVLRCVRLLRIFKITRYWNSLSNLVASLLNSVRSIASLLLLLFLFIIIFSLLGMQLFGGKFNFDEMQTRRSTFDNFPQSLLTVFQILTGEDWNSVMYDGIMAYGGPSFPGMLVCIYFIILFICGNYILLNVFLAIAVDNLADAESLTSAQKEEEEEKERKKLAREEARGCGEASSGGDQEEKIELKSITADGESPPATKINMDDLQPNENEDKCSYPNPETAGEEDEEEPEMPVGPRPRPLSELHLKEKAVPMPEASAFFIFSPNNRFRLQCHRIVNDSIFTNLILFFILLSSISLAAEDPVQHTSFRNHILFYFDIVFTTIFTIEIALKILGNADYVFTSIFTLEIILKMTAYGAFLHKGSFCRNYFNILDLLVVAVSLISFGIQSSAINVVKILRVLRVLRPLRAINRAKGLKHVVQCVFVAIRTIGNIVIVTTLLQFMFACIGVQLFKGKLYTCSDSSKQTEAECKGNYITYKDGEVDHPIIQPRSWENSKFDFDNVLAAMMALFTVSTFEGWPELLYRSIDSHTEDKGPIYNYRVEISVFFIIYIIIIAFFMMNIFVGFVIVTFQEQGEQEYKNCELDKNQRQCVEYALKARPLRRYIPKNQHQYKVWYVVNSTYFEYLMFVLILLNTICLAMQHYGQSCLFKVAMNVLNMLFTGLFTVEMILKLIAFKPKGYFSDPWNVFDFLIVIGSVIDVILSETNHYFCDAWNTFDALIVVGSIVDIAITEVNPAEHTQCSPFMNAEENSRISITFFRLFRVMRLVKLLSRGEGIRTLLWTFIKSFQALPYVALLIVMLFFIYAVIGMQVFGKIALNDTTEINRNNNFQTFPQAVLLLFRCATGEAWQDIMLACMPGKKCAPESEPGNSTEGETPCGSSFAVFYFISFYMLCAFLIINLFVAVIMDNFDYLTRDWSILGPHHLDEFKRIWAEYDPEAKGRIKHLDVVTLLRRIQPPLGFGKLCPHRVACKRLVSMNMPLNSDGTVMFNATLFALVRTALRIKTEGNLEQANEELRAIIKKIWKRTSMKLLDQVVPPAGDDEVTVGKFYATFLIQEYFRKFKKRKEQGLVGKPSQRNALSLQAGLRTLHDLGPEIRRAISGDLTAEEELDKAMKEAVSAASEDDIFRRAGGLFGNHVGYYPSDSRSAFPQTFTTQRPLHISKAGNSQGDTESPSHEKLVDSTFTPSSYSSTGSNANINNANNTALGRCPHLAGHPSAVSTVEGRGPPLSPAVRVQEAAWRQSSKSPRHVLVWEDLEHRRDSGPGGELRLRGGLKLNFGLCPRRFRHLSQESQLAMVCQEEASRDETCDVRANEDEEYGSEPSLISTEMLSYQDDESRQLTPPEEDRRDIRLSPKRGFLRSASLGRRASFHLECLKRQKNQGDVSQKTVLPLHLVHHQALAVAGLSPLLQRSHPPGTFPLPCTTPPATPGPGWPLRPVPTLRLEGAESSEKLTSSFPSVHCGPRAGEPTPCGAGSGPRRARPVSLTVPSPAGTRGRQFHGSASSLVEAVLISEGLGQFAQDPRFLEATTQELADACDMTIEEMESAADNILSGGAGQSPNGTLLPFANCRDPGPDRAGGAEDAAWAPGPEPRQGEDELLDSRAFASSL
Description: b) Pig isolated coronary artery
Coronary artery spirals were prepared and in lengths from 1.5 to 2 cm were incubated at 32.5° in Ca^++ -free Krebs-Henseleit solution containing tris buffer and 60 mM KCl. Ca^++ in concentrations ranging from 0.1 mM-7 mM was given every 10 min to produce a control dose-responsecurve. Following a wash out circle using EDTA, either placebo or drug was administered, and an equilibration time of 30 minutes allowed before the second dose-response curve was made. Dose-ratios were calculated at ED50 -levels, from these the log KB was calculated.

[2] = anaesthetized rat, i.v., at Dhr 20

SMILES | i.v. duration of action on heart rate ([1]; anaesthetized rat, i.v.) | % effect of Dhr 20 on dp/dtmax [1, 2] | further results
COc1ccc(CCN(C)CCCN(Cc2ccccc2[N+](=O)[O-])c2ccc(OC)c(OC)c2)cc1OC [Example E1, (N-[3,4-Dimethoxyphenyl]-N-3-[N'-2-(3,4-dimethoxyphenyl)-ethyl-N'-methylamino]-propyl)-(2-nitro)-benzylamine] | 10 min | -3% | activity against coronary spasm (ST-segment elevation in the ECG) (coronary spasm): active against coronary spasm
COc1ccc(CCN(C)CCCN(Cc2ccccc2)c2ccc(OC)c(OC)c2)cc1OC [Example E4, (N-[3,4-Dimethoxyphenyl]-N-3-[N'-2-(3,4-dimethoxyphenyl)-ethyl-N'-methylamino]-propyl)-benzylamine] | 10 min | -12% | Kb (coronary artery; pig coronary artery spirals, 60 mM KCl, Ca++ 0.1 mM-7 mM, 30 min equilibration, dose-ratios at ED50 levels): 1410 nM; Ca++-antagonistic activity in coronary artery in vitro (coronary artery; pig coronary artery, from log KB): moderate to medium
COc1ccc(CCN(C)CCCN(Cc2ccc([N+](=O)[O-])cc2)c2ccc(OC)c(OC)c2)cc1OC [Example E6, (N-[3,4-Dimethoxyphenyl]-N-3-[N'-2-(3,4-dimethoxyphenyl)-ethyl-N'-methylamino]-propyl)-(4-nitro)-benzylamine] | 60 min | -5% | 
CCCCC(=O)N(CCCN(C)CCc1ccc(OC)c(OC)c1)c1ccc(OC)c(OC)c1 [Example E12, (N-[3,4-Dimethoxyphenyl]-N-3-[N'-2-(3,4-dimethoxyphenyl)-ethyl-N'-methylamino]-propyl)-pentanoic acid amide] | 10 min | -6% | 
COc1ccc(CCN(C)CCCN(C(=O)CCc2ccccc2)c2ccc(OC)c(OC)c2)cc1OC [Example E15, (N-[3,4-Dimethoxyphenyl]-N-3-[N'-2-(3,4-dimethoxyphenyl)-ethyl-N'-methylamino]-propyl)-(3-phenyl)propanoic acid amide] | 10 min | -7% | 
CCCCOC(=O)N(CCCN(C)CCc1ccc(OC)c(OC)c1)c1ccc(OC)c(OC)c1 [Example E24, (N-[3,4-Dimethoxyphenyl]-N-3-[N'-2-(3,4-dimethoxyphenyl)-ethyl-N'methylamino]-propyl)-n-butyl-urethane] | 10 min | -8% | 
COc1ccc(CCN(C)CCCN(C(=O)Oc2ccccc2)c2ccc(OC)c(OC)c2)cc1OC [Example E25, (N-[3,4-Dimethoxyphenyl]-N-3-[N'-2-(3,4-dimethoxyphenyl)-ethyl-N'-methylamino]-propyl)-phenyl-urethane] | 10 min | -2% | Dhr 20 (i.v. dose which reduces heart rate by ca. 20%) ([1]; anaesthetized rat, i.v.): 0.8; % effect of Dhr 20 on BP (mean arterial blood pressure) [1, 2]: -14%; % effect of Dhr 20 on LVP (systolic left ventricular pressure) [1, 2]: -10%
CCCNC(=O)N(CCCN(C)CCc1ccc(OC)c(OC)c1)c1ccc(OC)c(OC)c1 [Example E27, (N-[3,4-Dimethoxyphenyl]-N-3-[N'-2-(3,4-dimethoxyphenyl)-ethyl-N'-methylamino]-propyl)-N"-n-propyl-urea] | 5 to 10 min | -1% | 
COc1ccc(CCN(C)CCCN(C(=O)NCc2ccccc2)c2ccc(OC)c(OC)c2)cc1OC [Example E30, (N-[3,4-Dimethoxyphenyl]-N-3-[N'-2-(3,4-dimethoxyphenyl)-ethyl-N'-methylamino]-propyl)-N"-benzylurea] | 10 min | -20% | 
COc1ccc(CCN(C)CCN(C(=O)NC(C)c2ccccc2)c2ccc(OC)c(OC)c2)cc1OC (stereo not shown) [Example E32] | 10 min | -3% | 
CCCCCN(CCCN(C)CCc1ccc(OC)c(OC)c1)c1ccc(OC)c(OC)c1 [Example E34, (N-[3,4-Dimethoxyphenyl]-N-3-[N'-2-(3,4-dimethoxyphenyl)-ethyl-N'-methylamino]-propyl)-n-pentylamine] | 5 to 10 min | -10% | 
COc1ccc(CCN(C)CCCN(c2ccc(OC)c(OC)c2)c2ncc([N+](=O)[O-])cc2[N+](=O)[O-])cc1OC [Example E44, (N-[3,4-Dimethoxyphenyl]-N-3-[N'-2-(3,4-dimethoxyphenyl)-ethyl-N'-methyl-amino]-propyl)-3,5-dinitro-2-amino-pyridine] | 10 min | -8% | Dhr 20 (i.v. dose which reduces heart rate by ca. 20%) ([1]; anaesthetized rat, i.v.): 3.2; % effect of Dhr 20 on BP (mean arterial blood pressure) [1, 2]: -10%; % effect of Dhr 20 on LVP (systolic left ventricular pressure) [1, 2]: -6%
COc1ccc(CCN(C)CCCN(C(=O)c2ccc([N+](=O)[O-])cc2)c2ccc(OC)c(OC)c2)cc1OC [Example E50, (N-[3,4-Dimethoxyphenyl]-N-3-[N'-2-(3,4-dimethoxyphenyl)-ethyl-N'-methyl-amino]-propyl)-4-nitrobenzamide] |  |  | % effect of Dhr 20 on BP (mean arterial blood pressure) ([1]; rat, in vivo): -6%; duration of action on heart rate ([1]; rat, in vivo): > 90 min; % effect of Dhr 20 on BP (mean arterial blood pressure) ([1]; rat, in vivo, iv): -1%; % effect of Dhr 20 on LVP (systolic left ventricular pressure) ([1]; rat, in vivo, iv): -1%
